From US20070213291A1, “Therapeutically useful synthetic oligonucleotides” (priority 1999, published 2007) come the findings set out here.

The test system of data set [1] is LNCaP human prostate cancer cells. The data set can be described thus: LNCaP human prostate cancer xenografts in male nude nu/nu mice. It is filed as in vivo. The conditions noted are these: after 4 weeks of treatment, compared with other groups (group 1 saline, group 5 BCG A-3). The procedure: LNCaP human prostate cancer cells are implanted subcutaneously, as xenografts, in male nude nu/nu mice. The mice are divided into 5 groups of 10 mice. On day 0, group 1 mice receive saline, group 2 mice receive 3 base SEQ ID NO:8, group 3 mice receive 6 base GT SEQ ID NO:25, group 4 mice receive 6 base AG SEQ ID NO:45 and group 5 mice receive 45 base BCG A-3 SEQ ID NO:69. After 4 weeks of treatment, the mice are sacrificed and timor mass is determined.

Data set [2] has as its system EL-4 murine T lymphoma cells. Kind of data set: EL-4 murine T lymphoma in C57/BL6 mice. It is filed as in vivo. The conditions noted are these: after 4 weeks of treatment, compared with group 1 (saline). The gist of the method:
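C57/BL6 mice bearing implanted EL-4 cells, 10 per group, dosed from day 0 with saline or one of several GT- or AG-containing oligonucleotides. Tumor mass determined at sacrifice after 4 weeks of treatment.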

Data set [3] deals with Jurkat human leukemia T cells. The data set can be described thus: Intracellular calcium (Fluo-3-AM fluorescence). It is filed as cell-based. Particulars: 24 h, 100 μg/ml. The procedure:
Increases in intracellular calcium (Ca^2+)i are reported to be associated with apoptosis induction (Lam et al. Mol. Endocrinol. 7:686, 1993). (Ca^2+)i was followed using the fluorescent probe Fluo-3-AM (Cell Permaant, Molecular Probes, Inc., Eugene, Oreg.). An increase in Fluo-3-AM fluorescence is indicative of an increase in (Ca^2+)i.
Jurkat human leukemia T cells were incubated for 24 h with 6 base GT SEQ. NO:25. Cells were collected by centrifugation, suspended in PBS containing 1% FBS and loaded with 10 μM Fluo-3-AM for 1 h at 37° C. Cell fluorescence was measured at 488 nm excitation and 530 nm emission (FL1 detector). Data were analyzed on a FACSCALIBUR using the program CellQUEST (Becton Dickinson).
(In general: A change in cytosolic calcium serves as a functional read-out for many receptors and channels.)

Regarding GGGTGG [SEQ ID NO:25], the tumor mass result was “less tumor mass than groups 1 and 5 mice” in data set [1]; “less tumor mass than group 1 mice” in data set [2]. In addition, the “increase in cell fluorescence (Fluo-3-AM), indicative of (Ca2+)i” value in data set [3] came to 88%.
